Laboratory results from PubChem BioAssay (NCI).
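GI50 = concentration required for 50% inhibition of growth. TGI: concentration producing complete growth inhibition.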

Legend:
Experiment in all cases: NCI anticancer screen, dose series, 384-well format
NCI-H226 lung = tested on: NCI-H226 lung
SF-295 CNS = tested on: SF-295 CNS
HCC-2998 colon = tested on: HCC-2998 colon
PC-3 prostate = tested on: PC-3 prostate
K-562 leukemia = tested on: K-562 leukemia
SF-268 CNS = tested on: SF-268 CNS
IGROV1 ovarian = tested on: IGROV1 ovarian
DU-145 prostate = tested on: DU-145 prostate
SK-OV-3 ovarian = tested on: SK-OV-3 ovarian
LOX IMVI melanoma = tested on: LOX IMVI melanoma
HCT-15 colon = tested on: HCT-15 colon
NCI-H23 lung = tested on: NCI-H23 lung
U251 glioblastoma = tested on: U251 glioblastoma
CAKI-1 renal = tested on: CAKI-1 renal
ACHN renal = tested on: ACHN renal
OVCAR-4 ovarian = tested on: OVCAR-4 ovarian
BT-549 breast = tested on: BT-549 breast
HT29 colon = tested on: HT29 colon
SN12C renal = tested on: SN12C renal
SW-620 colon = tested on: SW-620 colon
SNB-19 CNS = tested on: SNB-19 CNS
RPMI-8226 leukemia = tested on: RPMI-8226 leukemia
M14 melanoma = tested on: M14 melanoma
A498 renal = tested on: A498 renal
KM12 colon = tested on: KM12 colon
HS 578T breast = tested on: HS 578T breast
HOP-62 NSCLC = tested on: HOP-62 NSCLC
COLO 205 colon = tested on: COLO 205 colon
NCI-H322M lung = tested on: NCI-H322M lung
NCI/ADR-RES ovarian = tested on: NCI/ADR-RES ovarian
HCT-116 colon = tested on: HCT-116 colon
MCF7 breast = tested on: MCF7 breast
TK-10 renal = tested on: TK-10 renal
SF-539 CNS = tested on: SF-539 CNS
UACC-257 melanoma = tested on: UACC-257 melanoma
MOLT-4 leukemia = tested on: MOLT-4 leukemia
CCRF-CEM leukemia = tested on: CCRF-CEM leukemia
SNB-75 CNS = tested on: SNB-75 CNS
RXF 393 renal = tested on: RXF 393 renal
MDA-MB-435 melanoma = tested on: MDA-MB-435 melanoma
OVCAR-8 ovarian = tested on: OVCAR-8 ovarian
MALME-3M melanoma = tested on: MALME-3M melanoma
UACC-62 melanoma = tested on: UACC-62 melanoma
HOP-92 NSCLC = tested on: HOP-92 NSCLC
A549 NSCLC = tested on: A549 NSCLC
MDA-MB-468 breast = tested on: MDA-MB-468 breast
SK-MEL-5 melanoma = tested on: SK-MEL-5 melanoma
NCI-H460 NSCLC = tested on: NCI-H460 NSCLC
786-0 renal = tested on: 786-0 renal
SK-MEL-2 melanoma = tested on: SK-MEL-2 melanoma
SK-MEL-28 melanoma = tested on: SK-MEL-28 melanoma
NCI-H522 lung = tested on: NCI-H522 lung
HL-60(TB) leukemia = tested on: HL-60(TB) leukemia
EKVX NSCLC = tested on: EKVX NSCLC
OVCAR-3 ovarian = tested on: OVCAR-3 ovarian

O=C1C=CC(Nc2ccccc2[N+](=O)[O-])C1Nc1ccccc1[N+](=O)[O-] (stereo not given)
GI50 (NCI-H226 lung): 1530 nM | TGI (NCI-H226 lung): 2930 nM | GI50 (SF-295 CNS): 19500 nM | TGI (SF-295 CNS): 34600 nM | GI50 (HCC-2998 colon): 2050 nM | TGI (HCC-2998 colon): 4780 nM | GI50 (PC-3 prostate): 1580 nM | TGI (PC-3 prostate): 2960 nM | GI50 (K-562 leukemia): 4850 nM | TGI (K-562 leukemia): 15000 nM | GI50 (SF-268 CNS): 2340 nM | TGI (SF-268 CNS): 4420 nM | GI50 (IGROV1 ovarian): 2020 nM | TGI (IGROV1 ovarian): 4160 nM | GI50 (DU-145 prostate): 4870 nM | TGI (DU-145 prostate): 15700 nM | GI50 (SK-OV-3 ovarian): 4500 nM | TGI (SK-OV-3 ovarian): 15900 nM | GI50 (LOX IMVI melanoma): 1840 nM | TGI (LOX IMVI melanoma): 3470 nM | GI50 (HCT-15 colon): 1560 nM | TGI (HCT-15 colon): 2940 nM | GI50 (NCI-H23 lung): 1980 nM | TGI (NCI-H23 lung): 3620 nM | GI50 (U251 glioblastoma): 2110 nM | TGI (U251 glioblastoma): 3780 nM | GI50 (CAKI-1 renal): 1290 nM | TGI (CAKI-1 renal): 2580 nM | GI50 (ACHN renal): 1620 nM | TGI (ACHN renal): 3010 nM | GI50 (OVCAR-4 ovarian): 1780 nM | TGI (OVCAR-4 ovarian): 3340 nM | GI50 (BT-549 breast): 1580 nM | TGI (BT-549 breast): 3080 nM | GI50 (HT29 colon): 1620 nM | TGI (HT29 colon): 3150 nM | GI50 (SN12C renal): 1760 nM | TGI (SN12C renal): 3150 nM | GI50 (SW-620 colon): 1730 nM | TGI (SW-620 colon): 3150 nM | GI50 (SNB-19 CNS): 5200 nM | TGI (SNB-19 CNS): 15600 nM | GI50 (RPMI-8226 leukemia): 222 nM | TGI (RPMI-8226 leukemia): 410 nM | GI50 (M14 melanoma): 1710 nM | TGI (M14 melanoma): 3160 nM | GI50 (A498 renal): 2010 nM | TGI (A498 renal): 3800 nM | GI50 (KM12 colon): 2120 nM | TGI (KM12 colon): 5950 nM | GI50 (HS 578T breast): 1840 nM | TGI (HS 578T breast): 3420 nM | GI50 (HOP-62 NSCLC): 2300 nM | TGI (HOP-62 NSCLC): 3940 nM | GI50 (COLO 205 colon): 1910 nM | TGI (COLO 205 colon): 3370 nM | GI50 (NCI-H322M lung): 13800 nM | TGI (NCI-H322M lung): 26900 nM | GI50 (NCI/ADR-RES ovarian): 2780 nM | TGI (NCI/ADR-RES ovarian): 5640 nM | GI50 (HCT-116 colon): 1320 nM | TGI (HCT-116 colon): 2640 nM | GI50 (MCF7 breast): 1640 nM | TGI (MCF7 breast): 3040 nM | GI50 (TK-10 renal): 1650 nM | TGI (TK-10 renal): 3030 nM | GI50 (SF-539 CNS): 1590 nM | TGI (SF-539 CNS): 2950 nM | GI50 (UACC-257 melanoma): 1830 nM | TGI (UACC-257 melanoma): 3230 nM | GI50 (MOLT-4 leukemia): 344 nM | TGI (MOLT-4 leukemia): 1090 nM | GI50 (CCRF-CEM leukemia): 386 nM | TGI (CCRF-CEM leukemia): 1350 nM | GI50 (SNB-75 CNS): 4160 nM | TGI (SNB-75 CNS): 10100 nM | GI50 (RXF 393 renal): 1710 nM | TGI (RXF 393 renal): 3110 nM | GI50 (MDA-MB-435 melanoma): 2400 nM | TGI (MDA-MB-435 melanoma): 5280 nM | GI50 (OVCAR-8 ovarian): 1660 nM | TGI (OVCAR-8 ovarian): 3060 nM | GI50 (MALME-3M melanoma): 2270 nM | TGI (MALME-3M melanoma): 3740 nM | GI50 (UACC-62 melanoma): 1680 nM | TGI (UACC-62 melanoma): 3100 nM | GI50 (HOP-92 NSCLC): 2000 nM | TGI (HOP-92 NSCLC): 3570 nM | GI50 (A549 NSCLC): 3540 nM | TGI (A549 NSCLC): 11800 nM | GI50 (MDA-MB-468 breast): 510 nM | TGI (MDA-MB-468 breast): 967 nM | GI50 (SK-MEL-5 melanoma): 1750 nM | TGI (SK-MEL-5 melanoma): 3200 nM | GI50 (NCI-H460 NSCLC): > 100000 nM | TGI (NCI-H460 NSCLC): > 100000 nM | GI50 ([…]-0 renal): 1780 nM | TGI (786-0 renal): 3320 nM | GI50 (SK-MEL-2 melanoma): 445 nM | TGI (SK-MEL-2 melanoma): 1290 nM | GI50 (SK-MEL-28 melanoma): 1950 nM | TGI (SK-MEL-28 melanoma): 3410 nM | GI50 (NCI-H522 lung): 1390 nM | TGI (NCI-H522 lung): 2690 nM | GI50 (HL-60(TB) leukemia): 148 nM | TGI (HL-60(TB) leukemia): 281 nM | GI50 (EKVX NSCLC): 3020 nM | TGI (EKVX NSCLC): 8070 nM | GI50 (OVCAR-3 ovarian): 1520 nM | TGI (OVCAR-3 ovarian): 2870 nM
